The values below come from patent US20130267606A1, “USE OF VITAMIN K FOR WEIGHT MAINTENANCE AND WEIGHT CONTROL” (VITAK B.V., priority 2011, published 2013).

The nature of experiment [1]: placebo controlled 3-year randomized trial of vitamin K2 (MK-7) on body weight and BMI in postmenopausal women (Example 4). In kind it is in vivo, human. As for the experimental part:
250 apparently healthy postmenopausal women (age range: 55-75 years) were recruited in a placebo controlled 3-year randomized trial to investigate the influence of vitamin K2 (MK-7, 180 μg/day) on body weight and BMI. Exclusion criteria were: BMI>30 kg/m^2, a medical history or use of drugs known to interfere with vitamin K-, calcium- and/or glucose-metabolism. Body height was measured using a wall-mounted stadiometer. Body weight was measured to the nearest 0.1 kg with participants wearing light clothing and no shoes. Body mass index (BMI) was calculated as body weight (kg) divided by the square of height (m^2). Statistical analysis was performed using the statistical package (SPSS vs 17.0 Corp, Chicago, Ill.). […] In the unpaired t-test the difference in response to treatment was statistically significant at P<0.005 after 3 years.

Experiment [2] is described as follows: placebo controlled randomized 3-year trial of vitamin K2 (MK-4) on BMI and serum markers in postmenopausal women (Example 3). In kind it is in vivo, human. The note with it: for serum ucOC / serum cOC: mean±SD.
In a further experiment the test system is adipogenesis. The note with it: in vitro; cited from earlier work.
Experiment [3] is described as follows: vitamin K2 (MK-7) dose-response study, circulating osteocalcin and adiponectin (Example 2). It counts as in vivo, human.
Experiment [4] in a line: placebo controlled 2-year randomized trial of vitamin K1 on body weight and BMI during and after weight reduction intervention (Example 5). It counts as in vivo, human. The note with it: vitamin K1 1 mg/day. As for the experimental part: 120 apparently healthy but overweight subjects (age range: 35-60 years, 52 men, 68 women) were recruited in a placebo controlled 2-year randomized trial to investigate the influence of vitamin K1 (1 mg/day) on body weight and BMI during and after a 6-month intervention aiming significant weight reduction. At the start of the study participants were randomized to receive either placebo or vitamin K for 24 months. All participants received extensive dietary counselling and were motivated to increase their physical exercise during the first 6 months of the study, with personal contact once weekly. After this initial period, counselling was stopped, but vitamin K/placebo treatment was continued for another 18 months, while participants visited our institute every half year. Inclusion criteria were: apparently healthy, BMI between 25 and 35 kg/m^2, Exclusion criteria were: a medical history or use of drugs known to interfere with vitamin K-, calcium- and/or glucose-metabolism. Body height was measured using a wall-mounted stadiometer. Body weight was measured to the nearest 0.1 kg with participants wearing light clothing and no shoes. Body mass index (BMI) was calculated as body weight (kg) divided by the square of height (m^2). Statistical analysis was performed using the statistical package (SPSS vs 17.0 Corp, Chicago, Ill.).

The conditions of experiment [5]: 1 year of supplementation, healthy postmenopausal women; cited from earlier work.
For experiment [6] the following is noted: after 3 years of supplementation, cited from earlier work.
For experiment [7] the following is noted: 62.5 mg/kg body weight per day, rats; cited from earlier work.
[8] abbreviates: second phase of the study (18 months).

Where two headings read alike, the source gives them in different places.

For `CC(C)=CCC/C(C)=C/CC/C(C)=C/CC/C(C)=C/CC1=C(C)C(=O)c2ccccc2C1=O` [MK-4], the BMI in experiment [1] (after 3 years supplementation (180 μg/day), P=0.463) is 25.4±3.0 kg/m^2; in experiment [1] (baseline, treated group), 25.2±2.8 kg/m^2; in experiment [2] (after 3 years MK-4 45 mg/day, non-significant increase (P=0.463)), 27.2±0.3 kg/m^2; in experiment [2] (baseline, MK-4 group), 27.1±0.3 kg/m^2. The average body weight in experiment [1] (after 3 years supplementation (180 μg/day), non-significant change) was found to be 67.4 kg; in experiment [1] (baseline, treated group) it was 66.9 kg; in experiment [2] (remained constant over 3 years MK-4 45 mg/day), 70.3 ± 0.9 kg. The “UCR (ucOC/cOC ratio)” value came to 0.12±0.15 in experiment [2] (after 3 years MK-4 45 mg/day) and 0.54±0.35 in experiment [2] (baseline, MK-4 group). Besides, in experiment [2] (after 3 years MK-4 45 mg/day versus baseline, P<0.0001), the “decrease of UCR” value is 74±22%. Besides, the “serum ucOC” value in experiment [2] (after 3 years MK-4 45 mg/day, P<0.0001) came out at 0.8 ± 1.0 ng/mL; in experiment [2] (baseline, MK-4 group) it was 3.2 ± 1.9 ng/mL. Also, the “serum cOC” value stood at 6.9 ± 2.3 ng/mL in experiment [2] (after 3 years MK-4 45 mg/day, P=0.046) and 6.4 ± 2.5 ng/mL in experiment [2] (baseline, MK-4 group). In addition, the circulating adiponectin in experiment [2] (after 3 years MK-4 45 mg/day, no significant difference to placebo (P=0.224)) came out at 13.1 ± 8.3 µg/mL; in experiment [2] (baseline, MK-4 group, no significant difference to placebo (P=0.562)), 14.2 ± 9.7 µg/mL. Moreover, the adipogenesis result in the experiment with adipogenesis is given as “inhibited”. The osteoblastic differentiation entry with adipogenesis is listed as “stimulated”.

For `CC(C)=CCC/C(C)=C/CC/C(C)=C/CC/C(C)=C/CC/C(C)=C/CC/C(C)=C/CC/C(C)=C/CC1=C(C)C(=O)c2ccccc2C1=O` [MK-7], the ucOC/cOC ratio entry in experiment [3] (MK-7 45-360 μg per day for 12 weeks, effect even at 45 μg/day) was “significant decrease”. In addition, the “circulating ucOC” value in experiment [3] (MK-7 45-360 μg per day for 12 weeks, effect even at 45 μg/day, healthy men and premenopausal women) is reported as “significant decrease”. The circulating adiponectin result in experiment [3] (nutritional levels of MK-7, 12 weeks) is given as “does not affect”. Also, the “effect on body weight and BMI” value in experiment [1] (nutritionally relevant intake, MK-7 180 μg/day, 3 years, versus placebo increase) is “maintenance of body weight and BMI”.

On to `CC1=C(C/C=C(\C)CCC[C@H](C)CCC[C@H](C)CCCC(C)C)C(=O)c2ccccc2C1=O` [vitamin K1, phylloquinone], for which, in experiment [4] (first 6 months with dietary counselling and exercise), the “decrease of average body weight and BMI versus placebo” value is reported as “non-significant better performance”. In addition, in experiment [4] (following 18 months (second phase), p<0.05), the “average weight gain versus placebo group” value is listed as “significantly lower”. Moreover, in experiment [4] (setting [8]), the “participants returned to their starting weight” value amounted to 7 participants and the “participants without significant weight gain” value was found to be 28 participants. Moreover, the glucose metabolism result in experiment [5] is listed as “did not alter”. In addition, in the experiment with adipogenesis, the adipogenesis result was “not”. Moreover, in experiment [6] (older men), the “progression of insulin resistance” value was “reduced”. Also, in experiment [6] (women), the “progression of insulin resistance” value is given as “not”.

With menaquinone [vitamin K2], in experiment [7], the “effect in animal model for auto-immune disease” value is on record as “protective”.
